What all share (assay type): cell-based
The target of assay [1] is T1, human cloned CHRM3 receptor (Homo sapiens, UniProt P20309).
T1 construct: expressed in transfected cells; host or cells: CHO-K1 (M3_CHO)
In words: CHRM3 Ca++ Flux Assay (M3_CHO cells, agonist mode). The note with it: for Emax: read-out: M3 FDSS PA %; for EC50: agonist mode, geometric mean if tested more than once, read-out: M3 FDSS EC50. As to the method: (§1) The above examples were characterized by measuring the intracellular mobilization of Ca^++ ions caused by signaling events mediated by the receptor. The Intra-cellular Calcium flux levels were captured by the highly sensitive Ca^++ indicator, Calcium Assay Kit (BD Biosciences; Catalog Number 640178. The fluorescent activity from all receptors were monitored by the fluorescent imager, FDSS 7000EX (Hamamatsu) over a span of 3 minutes. The change in Calcium flux was readily captured upon activation with the muscarinic orthosteric agonist, Carbachol.
(§2) CHO-K1 cells stably expressing the human cloned CHRM3 receptor (M3_CHO cells) were grown and maintained in a monolayer culture with F12/HAM (Life Technologies) supplemented with 10% Fetal Bovine Serum, IX Pen-Strep, and 0.4 mg/mL Geneticin in a humidified atmosphere (5% CO2) at 37° C. The cultures were grown to 80-90% confluency in T150 flasks (Corning) and washed with 1×DPBS and lifted with 0.05% Trypsin (Life Technologies). The cells were then spun (1K rpm, 3 minutes) and frozen using Recovery Cell Culture Freezing Media (Gibco Technologies). Cells were stored in liquid nitrogen and thawed a day before the assay. A similar procedure was used for cells stably expressing the human cloned CHRM5 receptor (M5_CHO).
(§3) Prior to the day of the assay, stable M3_CHO or M5_CHO cells were thawed and plated on Greiner 384 well black TC treated plates at 12K cells/well in F12/DMEM supplemented with 10% FBS (Hyclone) and kept overnight in a humidified atmosphere (5% CO2) at 37° C. The next day, cells were loaded with Ca^++ dye (BD Biosciences) using Loading Buffer (HBSS +Ca/+Mg, 20 mM HEPES, 2.5 mM Probenecid) and placed back in cell incubator for a minimum of 1 hour. After incubation, the dye was replaced with Assay Buffer (HBSS −Ca/−Mg, 20 mM HEPES, 2.5 mM Probenecid) and kept at room temperature in the dark before running on cell imager. The FDSS 7000EX (Hamamatsu) was used to acquire Ca^+− traces from cells treated with 11 point dose response of compounds in triplicate in order to generate dose response curves in agonist mode. All compounds were serially diluted in DMSO then prepared in Assay Buffer for Ca^++ flux studies. The dose response curves were generated from the average of triplicate wells obtained from each data point and used a non-linear regression of four parameter dose response algorithm. The Percent Activity (PA) was measured to EC100 of Carbachol.
(§4) If an Example was tested more than once in an assay, then the values below represent the geometric mean of the results from each independent experiment.

Assay [2] addresses T2, Cloned human M1 receptor (CHRM1) (Homo sapiens, UniProt P11229).
T2 construct: expressed in transfected cells; host or cells: HEK293
T2 sequence (P11229 1-460): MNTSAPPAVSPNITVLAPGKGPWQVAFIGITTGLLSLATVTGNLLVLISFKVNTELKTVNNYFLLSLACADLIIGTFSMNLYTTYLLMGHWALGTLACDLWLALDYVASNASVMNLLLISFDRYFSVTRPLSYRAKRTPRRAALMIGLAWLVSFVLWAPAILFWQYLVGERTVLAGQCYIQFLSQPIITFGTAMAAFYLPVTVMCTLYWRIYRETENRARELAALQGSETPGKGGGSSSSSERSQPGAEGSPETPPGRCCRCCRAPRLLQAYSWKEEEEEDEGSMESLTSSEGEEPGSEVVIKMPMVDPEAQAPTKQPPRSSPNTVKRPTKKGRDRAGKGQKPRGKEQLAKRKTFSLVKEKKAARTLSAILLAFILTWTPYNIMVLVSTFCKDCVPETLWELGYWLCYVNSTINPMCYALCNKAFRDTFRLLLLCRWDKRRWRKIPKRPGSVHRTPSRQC
The assay is described as follows: CHRM1 Ca++ Flux Assay (HEK293 M1 cells, agonist mode). The note with it: for Emax: read-out: M1 FDSS PA %; for EC50: geometric mean if tested more than once, read-out: M1 FDSS EC50. On the procedure:
as §1
Cloned human M1 receptor (CHRM1) was stably expressed in HEK293 cells and were grown and maintained in a monolayer culture with DMEM/High Glucose (Life Technologies) supplemented with 10% Fetal Bovine Serum, 1×Pen-Strep, and 0.5 mg/mL Geneticin in a humidified atmosphere (5% CO2) at 37° C. The cultures were grown to 90% confluency in T150 flasks (Corning) and washed with 1×DPBS and lifted with 0.05% Trypsin (Life Technologies). The cells were then spun (1K rpm, 3 minutes) and frozen using Recovery Cell Culture Freezing Media (Gibco Technologies). Cells were stored in liquid nitrogen and thawed a day before the assay.
Prior to the day of the assay, stable HEK293 M1 cells were thawed and plated on 384 well black walled clear bottom TC treated plates (Greiner Cat #781091) at 25K cells/well with DMEM/High Glucose supplemented with 10% FBS (Hyclone) Pen-Strep (Life Technologies) and kept overnight in a humidified atmosphere (5% CO2) at 37° C. The following day, cells were loaded with 20 uL Ca^++ dye (BD Biosciences) using Loading Buffer (HBSS +Ca/+Mg, 20 mM HEPES) and placed back in cell incubator for a minimum of 1 hour. The dye was replaced with 45 μL Assay Buffer (HBSS −Ca/−Mg, 20 mM HEPES) and kept at room temperature prior to running on cell imager. Compounds were prepared in Assay Buffer and 5 uL was added to the cells. The FDSS 7000EX (Hamamatsu) was used to acquire Ca++ traces for 3 minutes from cells treated with 11 point dose in triplicate in order to generate dose response curves in agonist mode. All compounds were serially diluted in DMSO then prepared in Assay Buffer for Ca^++ flux studies. The dose response curves were generated from the average of triplicate wells obtained from each data point and used a non-linear regression of four parameter dose response algorithm. The Percent Activity (PA) was measured to EC100 of Carbachol.
as §4

For assay [3], the target named is T3, human cloned CHRM5 receptor (Homo sapiens, UniProt P08912).
T3 construct: expressed in transfected cells; host or cells: CHO (M5_CHO)
T3 sequence (P08912 1-532): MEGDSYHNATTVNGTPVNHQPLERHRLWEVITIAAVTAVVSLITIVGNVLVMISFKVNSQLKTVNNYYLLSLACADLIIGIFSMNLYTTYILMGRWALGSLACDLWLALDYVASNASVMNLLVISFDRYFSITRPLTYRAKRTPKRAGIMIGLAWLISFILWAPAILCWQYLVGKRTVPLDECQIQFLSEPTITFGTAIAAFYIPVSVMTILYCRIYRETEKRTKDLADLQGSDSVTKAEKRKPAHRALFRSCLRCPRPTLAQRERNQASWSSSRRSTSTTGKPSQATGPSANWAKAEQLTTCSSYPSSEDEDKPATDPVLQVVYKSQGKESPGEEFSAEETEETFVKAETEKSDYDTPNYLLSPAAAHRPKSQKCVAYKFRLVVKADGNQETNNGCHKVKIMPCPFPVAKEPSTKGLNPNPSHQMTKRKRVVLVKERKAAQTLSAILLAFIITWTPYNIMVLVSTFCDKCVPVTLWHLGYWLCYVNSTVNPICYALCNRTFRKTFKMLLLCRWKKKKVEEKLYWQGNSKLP
In words: CHRM5 Ca++ Flux Assay (M5_CHO cells, agonist mode). The conditions noted are these: for Emax: read-out: M5 FDSS PA %; for EC50: agonist mode, geometric mean if tested more than once, read-out: M5 FDSS EC50. As to the method: as §1, §2, §3, §4

Where [4] appears, read: Percent Activity (PA) measured to EC100 of Carbachol.

Experimental findings from patent US11485742B2, “2-azaspiro[3.4]octane derivatives as M4 agonists” (NOVARTIS AG, priority 2019, dated 2022) are described below.

The structures appear in SMILES notation. A value given as a limit tells only on which side of the number the result lay.

T1 sequence (P20309 whole entry): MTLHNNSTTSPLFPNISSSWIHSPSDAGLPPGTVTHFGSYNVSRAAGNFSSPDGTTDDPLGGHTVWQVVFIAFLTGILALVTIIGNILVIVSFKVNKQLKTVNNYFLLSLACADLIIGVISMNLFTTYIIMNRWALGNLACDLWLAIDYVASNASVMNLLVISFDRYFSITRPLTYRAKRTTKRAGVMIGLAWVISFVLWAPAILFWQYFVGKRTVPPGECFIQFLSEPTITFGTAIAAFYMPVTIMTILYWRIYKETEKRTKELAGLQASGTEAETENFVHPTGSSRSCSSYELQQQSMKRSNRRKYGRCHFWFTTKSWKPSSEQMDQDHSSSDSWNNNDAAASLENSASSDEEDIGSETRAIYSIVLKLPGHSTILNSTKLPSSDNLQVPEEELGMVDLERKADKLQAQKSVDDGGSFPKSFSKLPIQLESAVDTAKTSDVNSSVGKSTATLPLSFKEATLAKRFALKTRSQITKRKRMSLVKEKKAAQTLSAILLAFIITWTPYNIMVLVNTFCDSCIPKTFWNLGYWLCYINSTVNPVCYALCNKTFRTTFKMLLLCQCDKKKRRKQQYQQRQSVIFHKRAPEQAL

Regarding `Fc1ccc(O[C@@H]2CCOC2)c(C2CCN([C@@H]3COC4(C3)CN(c3nnco3)C4)CC2)c1` [Example 1D, (S)-7-(4-(5-fluoro-2-(((R)-tetrahydrofuran-3-yl)oxy)phenyl)piperidin-1-yl)-2-(1,3,4-oxadiazol-2-yl)-5-oxa-2-azaspiro[3.4]octane], the Emax in assay [1] (setting [4]) was determined as 0%; in assay [2] (Percent Activity (PA)) it was 69%; in assay [3] (setting [4]), 0%. In addition, the figures for the EC50 in assay [1], in assay [2] and in assay [3] were > 25 µM, 0.609 µM and > 25 µM, respectively.

As to `Fc1ccc(OC[C@@H]2CCOC2)c(C2CCN([C@@H]3COC4(C3)CN(c3nncs3)C4)CC2)c1` [Example 5I, (S)-7-(4-(5-fluoro-2-(((R)-tetrahydrofuran-3-yl)methoxy)phenyl)piperidin-1-yl)-2-(1,3,4-thiadiazol-2-yl)-5-oxa-2-azaspiro[3.4]octane], the Emax in assay [1] (setting [4]) is 0%; in assay [2] (Percent Activity (PA)), 69%; in assay [3] (setting [4]), 0%. The EC50 in assay [1] was > 25 µM; in assay [2] it was 0.775 µM; in assay [3] it was > 25 µM.

As for `Fc1ccc(OC[C@H]2CCO2)c(C2CCN([C@@H]3COC4(C3)CN(c3nncs3)C4)CC2)c1.O=C(O)C(F)(F)F` (single isomer, unassigned) [Example 2D, (S)-7-(4-(5-fluoro-2-(((R)-oxetan-2-yl)methoxy)phenyl)piperidin-1-yl)-2-(1,3,4-thiadiazol-2-yl)-5-oxa-2-azaspiro[3.4]octane trifluoroacetate or (S)-7-(4-(5-fluoro-2-(((S)-oxetan-2-yl)methoxy)phenyl)piperidin-1-yl)-2-(1,3,4-thiadiazol-2-yl)-5-oxa-2-azaspiro[3.4]octane trifluoroacetate], in assay [1] (setting [4]), the “M3 FDSS PA %” value was 0%. The values for the EC50 in assay [1], in assay [2] and in assay [3] were > 25 µM, 0.289 µM and > 25 µM, respectively. For the same molecule, in assay [2] (Percent Activity (PA)), the “M1 FDSS PA %” value turned out to be 72%. Moreover, the “M5 FDSS PA %” value in assay [3] (setting [4]) stood at 0%.

In the case of `Fc1cc(F)c(OC2CCOCC2)c(C2CCN([C@@H]3COC4(C3)CN(c3nnco3)C4)CC2)c1` [Example 2BB, (S)-7-(4-(3,5-difluoro-2-((tetrahydro-2H-pyran-4-yl)oxy)phenyl)piperidin-1-yl)-2-(1,3,4-oxadiazol-2-yl)-5-oxa-2-azaspiro[3.4]octane], the Emax in assay [1] (setting [4]) came to 0%; in assay [2] (Percent Activity (PA)), 65%; in assay [3] (setting [4]) it was 0%. For the same molecule, the EC50 in assay [1] is > 25 µM; in assay [2] it was 7 µM; in assay [3], > 25 µM.

Turning to `Fc1ccc(C2CCOCC2)c(C2CCN([C@@H]3COC4(C3)CN(c3ncco3)C4)CC2)c1` [Example 4W, (S)-7-(4-(5-fluoro-2-(tetrahydro-2H-pyran-4-yl)phenyl)piperidin-1-yl)-2-(oxazol-2-yl)-5-oxa-2-azaspiro[3.4]octane], the Emax in assay [1] (setting [4]) amounted to 0%; in assay [2] (Percent Activity (PA)) it was 74%; in assay [3] (setting [4]), 0%. Also, the EC50 was > 25 µM in assay [1], 1.09 µM in assay [2] and > 25 µM in assay [3].

Regarding `Fc1cc(F)c(O[C@@H]2CCOC2)c(C2CCN([C@@H]3COC4(C3)CN(c3nnco3)C4)CC2)c1` [Example 2CC, (S)-7-(4-(3,5-difluoro-2-(((R)-tetrahydrofuran-3-yl)oxy)phenyl)piperidin-1-yl)-2-(1,3,4-oxadiazol-2-yl)-5-oxa-2-azaspiro[3.4]octane], the Emax in assay [1] (setting [4]) was found to be 0%; in assay [2] (Percent Activity (PA)), 85%; in assay [3] (setting [4]), 0%. The EC50 in assay [1] was > 25 µM; in assay [2], 2.18 µM; in assay [3], > 25 µM.

`COc1ccc(Cl)cc1C1CCN([C@@H]2COC3(C2)CN(c2ncns2)C3)CC1` [Example 5A, (S)-7-(4-(5-chloro-2-methoxyphenyl)piperidin-1-yl)-2-(1,2,4-thiadiazol-5-yl)-5-oxa-2-azaspiro[3.4]octane]: the Emax came to 0% in assay [1] (setting [4]), 70% in assay [2] (Percent Activity (PA)) and 0% in assay [3] (setting [4]). Moreover, the figures for the EC50 in assay [1], in assay [2] and in assay [3] were > 25 µM, 0.63 µM and > 25 µM, respectively.

For the molecule `Fc1ccc(O[C@H]2CCOC2)c(C2CCN([C@@H]3COC4(C3)CN(c3nnco3)C4)CC2)c1` [Example 1H, (S)-7-(4-(5-fluoro-2-(((S)-tetrahydrofuran-3-yl)oxy)phenyl)piperidin-1-yl)-2-(1,3,4-oxadiazol-2-yl)-5-oxa-2-azaspiro[3.4]octane], the Emax was determined as 0% in assay [1] (setting [4]), 87% in assay [2] (Percent Activity (PA)) and 0% in assay [3] (setting [4]). The EC50 is > 25 µM in assay [1], 0.631 µM in assay [2] and > 25 µM in assay [3].

In the case of `CC(C)(O)CCOc1ccc(F)cc1C1CCN([C@@H]2COC3(C2)CN(c2nncs2)C3)CC1` [Example 5P, (S)-4-(2-(1-(2-(1,3,4-thiadiazol-2-yl)-5-oxa-2-azaspiro[3.4]octan-7-yl)piperidin-4-yl)-4-fluorophenoxy)-2-methylbutan-2-ol], the Emax in assay [1] (setting [4]) came out at 0%; in assay [2] (Percent Activity (PA)) it was 91%; in assay [3] (setting [4]), 0%. The EC50 in assay [1] was > 25 µM; in assay [2] it was 0.413 µM; in assay [3] it was > 25 µM.

What is called EC50 is the midpoint of the concentration-response curve.
